Settings: 323.15 K, Liquid, Vibrating tube method

CCCCC(=O)OCC(COC(=O)CCCC)(COC(=O)CCCC)COC(=O)CCCC [pentaerythritol tetrapentanoate]
Settings	mass density [kg/m3]
15928 kPa	1005.6
15948 kPa	1005.6
15968 kPa	1005.5
15988 kPa	1005.5
16012 kPa	1005.6
16032 kPa	1005.7
16056 kPa	1005.6
16076 kPa	1005.7
16096 kPa	1005.7
16116 kPa	1005.7
16141 kPa	1005.7
16161 kPa	1005.6
16185 kPa	1005.7
16205 kPa	1005.7
16227 kPa	1005.7
16252 kPa	1005.7
16273 kPa	1005.7
16293 kPa	1005.7
16318 kPa	1005.8
16339 kPa	1005.8
16360 kPa	1005.8
16385 kPa	1005.8
16406 kPa	1006
16427 kPa	1005.8
16453 kPa	1005.9
16474 kPa	1006
16495 kPa	1005.9
16521 kPa	1005.9
16542 kPa	1006
16564 kPa	1006
16586 kPa	1006
16612 kPa	1006
16634 kPa	1006.1
16660 kPa	1006.1
16681 kPa	1006
16704 kPa	1006.1
16730 kPa	1006.2
16752 kPa	1006.1
16774 kPa	1006.1
16800 kPa	1006.1
16823 kPa	1006.1
16845 kPa	1006.2
16872 kPa	1006.2
16894 kPa	1006.1
16917 kPa	1006.2
16944 kPa	1006.3
16967 kPa	1006.3
16990 kPa	1006.2
17017 kPa	1006.1
17040 kPa	1006.2
17063 kPa	1006.2
17090 kPa	1006.4
17114 kPa	1006.3
17138 kPa	1006.4
17161 kPa	1006.3
17189 kPa	1006.4
17212 kPa	1006.4
17236 kPa	1006.4
17264 kPa	1006.4
17288 kPa	1006.4
17312 kPa	1006.4
17335 kPa	1006.5
17364 kPa	1006.5
17388 kPa	1006.6
17412 kPa	1006.6
17441 kPa	1006.5
17467 kPa	1006.5
17491 kPa	1006.5
17520 kPa	1006.6
17544 kPa	1006.6
17568 kPa	1006.6
17593 kPa	1006.6
17623 kPa	1006.7
17647 kPa	1006.7
17672 kPa	1006.7
17702 kPa	1006.8
17726 kPa	1006.7
17756 kPa	1006.6
17781 kPa	1006.7
17807 kPa	1006.7
17832 kPa	1006.7
17862 kPa	1006.8
17887 kPa	1006.9
17913 kPa	1006.7
17944 kPa	1006.8
17969 kPa	1006.8
18000 kPa	1006.9
18025 kPa	1006.8
18051 kPa	1006.9
18077 kPa	1006.9
18108 kPa	1007
18134 kPa	1007
18161 kPa	1007.1
18192 kPa	1007
18218 kPa	1007
18249 kPa	1007.1
18276 kPa	1007.2
18303 kPa	1007.1
18329 kPa	1007.1
18361 kPa	1007.1
18388 kPa	1007.1
18415 kPa	1007.1
18447 kPa	1007.2
18475 kPa	1007.2
18502 kPa	1007.2
18530 kPa	1007.2
18563 kPa	1007.2
18590 kPa	1007.3
18618 kPa	1007.4
18651 kPa	1007.4
18679 kPa	1007.4
18707 kPa	1007.3
18740 kPa	1007.4
18768 kPa	1007.3
18797 kPa	1007.4
18831 kPa	1007.4
18859 kPa	1007.4
18888 kPa	1007.4
18917 kPa	1007.4
18952 kPa	1007.5
18980 kPa	1007.5
19014 kPa	1007.5
19043 kPa	1007.6
19072 kPa	1007.5
19101 kPa	1007.7
19136 kPa	1007.6
19166 kPa	1007.7
19196 kPa	1007.7
19232 kPa	1007.6
19262 kPa	1007.7
19292 kPa	1007.8
19322 kPa	1007.7
19388 kPa	1007.8
19515 kPa	1007.8
19552 kPa	1007.8
19582 kPa	1007.8
19613 kPa	1008
19650 kPa	1007.9
19682 kPa	1008
19716 kPa	1008
19747 kPa	1008.1
19778 kPa	1007.9
19817 kPa	1008
19848 kPa	1008
19887 kPa	1008
19919 kPa	1008
19952 kPa	1008.1
19992 kPa	1008.1
20023 kPa	1008.2
20052 kPa	1008.2
20085 kPa	1008.2
20113 kPa	1008.2
20143 kPa	1008.2
20171 kPa	1008.3
20199 kPa	1008.2
20232 kPa	1008.3
20260 kPa	1008.2
20288 kPa	1008.4
20321 kPa	1008.4
20349 kPa	1008.4
20383 kPa	1008.5
20411 kPa	1008.4
20440 kPa	1008.5
20474 kPa	1008.4
20502 kPa	1008.4
20532 kPa	1008.5
20561 kPa	1008.5
20596 kPa	1008.5
20625 kPa	1008.6
20659 kPa	1008.6
20689 kPa	1008.5
20718 kPa	1008.6
20747 kPa	1008.6
20783 kPa	1008.8
20813 kPa	1008.6
20848 kPa	1008.7
20877 kPa	1008.7
20908 kPa	1008.7
20944 kPa	1008.8
20974 kPa	1008.8
21004 kPa	1008.8
21035 kPa	1008.8
21072 kPa	1008.7
21102 kPa	1008.8
21133 kPa	1008.9
21170 kPa	1008.8
21202 kPa	1009
21233 kPa	1008.9
21271 kPa	1008.9
21302 kPa	1009
21334 kPa	1009.1
21366 kPa	1009
21404 kPa	1009
21436 kPa	1009.1
21467 kPa	1009.1
21506 kPa	1009.1
21538 kPa	1009
21570 kPa	1009.1
21602 kPa	1009.2
21640 kPa	1009.2
21673 kPa	1009.2
21712 kPa	1009.2
21744 kPa	1009.1
21778 kPa	1009.3
21817 kPa	1009.3
21851 kPa	1009.3
21883 kPa	1009.4
21916 kPa	1009.3
21956 kPa	1009.5
21989 kPa	1009.3
22029 kPa	1009.4
22063 kPa	1009.6
22097 kPa	1009.4
22137 kPa	1009.6
22171 kPa	1009.6
22206 kPa	1009.5
22241 kPa	1009.5
22282 kPa	1009.6
22316 kPa	1009.7
22351 kPa	1009.7
22393 kPa	1009.6
22429 kPa	1009.6
22457 kPa	1009.7
22500 kPa	1009.8
22542 kPa	1009.8
22578 kPa	1009.8
22621 kPa	1009.9
22658 kPa	1009.7
22697 kPa	1009.8
22736 kPa	1009.9
22782 kPa	1009.8
22818 kPa	1009.9
22851 kPa	1010
22882 kPa	1010
22921 kPa	1010.1
22951 kPa	1009.9
22978 kPa	1010.1
23006 kPa	1010
23030 kPa	1010
23059 kPa	1010.1
23083 kPa	1010.2
23108 kPa	1010.1
23132 kPa	1010.2
23156 kPa	1010.1
23180 kPa	1010.1
23209 kPa	1010.1
23233 kPa	1010.2
23262 kPa	1010.2
23287 kPa	1010.1
23311 kPa	1010.3
23336 kPa	1010.3
23364 kPa	1010.3
23389 kPa	1010.3
23414 kPa	1010.4
23444 kPa	1010.3
23468 kPa	1010.3
23497 kPa	1010.4
23523 kPa	1010.3
23547 kPa	1010.4
23572 kPa	1010.4
23603 kPa	1010.4
23627 kPa	1010.5
23657 kPa	1010.5
23683 kPa	1010.5
23708 kPa	1010.5
23738 kPa	1010.6
23763 kPa	1010.6
23790 kPa	1010.6
23820 kPa	1010.5
23846 kPa	1010.7
23871 kPa	1010.6
23902 kPa	1010.5
23928 kPa	1010.7
23954 kPa	1010.7
23985 kPa	1010.6
24011 kPa	1010.6
24037 kPa	1010.7
24063 kPa	1010.8
24094 kPa	1010.9
24121 kPa	1010.7
24148 kPa	1010.8
24180 kPa	1010.8
24206 kPa	1010.7
24237 kPa	1010.8
24264 kPa	1010.9
24291 kPa	1010.8
24318 kPa	1010.9
24350 kPa	1010.8
24378 kPa	1010.9
24405 kPa	1011
24437 kPa	1010.9
24464 kPa	1010.9
24497 kPa	1011.1
24525 kPa	1011
24552 kPa	1011
24580 kPa	1011.1
24612 kPa	1011
24640 kPa	1011
24667 kPa	1011.2
24701 kPa	1011.1
24728 kPa	1011.1
24761 kPa	1011.1
24789 kPa	1011.2
24817 kPa	1011.2
24845 kPa	1011.1
24879 kPa	1011.3
24908 kPa	1011.2
24936 kPa	1011.2
24970 kPa	1011.3
24999 kPa	1011.2
25027 kPa	1011.3
25056 kPa	1011.3
25091 kPa	1011.3
25119 kPa	1011.3
25148 kPa	1011.4
25182 kPa	1011.4
25212 kPa	1011.5
25247 kPa	1011.4
25278 kPa	1011.4
25307 kPa	1011.4
25336 kPa	1011.4
